≈ marks a conversion by molar mass, not a printed value.
Columns and labels:
[1] = target: S-phase kinase-associated protein 2/Cyclin-dependent kinases regulatory subunit 1/S-phase kinase-associated protein 1 (Homo sapiens, UniProt Q13309); assay: Inhibition of GST-tagged Skp2/Skp1 (unknown origin)/His6-tagged Cks1 (unknown origin) interaction preincubated with Skp2/Skp1 for 10 mins followed by Cks1 addition measured after 20 mins by HTRF assay; format: protein assay
[2] = Solubility in cell culture medium by HPLC analysis; format: physicochemical
MGC-803 = assay: Antitumor activity against human MGC-803 cells assessed as cell growth inhibition incubated for 72 hrs by MTT assay; format: functional, cell-based; details: MGC-803, 72 h
PC-3 = assay: Antitumor activity against human PC-3 cells assessed as cell growth inhibition incubated for 72 hrs by MTT assay; format: functional, cell-based; details: PC-3, 72 h
[3] = Antitumor activity against human EC1 cells assessed as cell growth inhibition incubated for 72 hrs by MTT assay; format: functional, cell-based; details: EC1, 72 h
NCI-H1299 = assay: Antitumor activity against human NCI-H1299 cells assessed as cell growth inhibition incubated for 72 hrs by MTT assay; format: functional, cell-based; details: NCI-H1299, 72 h
MCF7 = assay: Antitumor activity against human MCF7 cells assessed as cell growth inhibition incubated for 72 hrs by MTT assay; format: functional, cell-based; details: MCF7, 72 h

Sequence of S-phase kinase-associated protein 2/Cyclin-dependent kinases regulatory subunit 1/S-phase kinase-associated protein 1 (P61024 whole entry): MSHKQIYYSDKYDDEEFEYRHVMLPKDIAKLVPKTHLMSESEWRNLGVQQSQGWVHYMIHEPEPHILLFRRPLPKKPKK
Sequence of S-phase kinase-associated protein 2/Cyclin-dependent kinases regulatory subunit 1/S-phase kinase-associated protein 1 (Q13309 whole entry): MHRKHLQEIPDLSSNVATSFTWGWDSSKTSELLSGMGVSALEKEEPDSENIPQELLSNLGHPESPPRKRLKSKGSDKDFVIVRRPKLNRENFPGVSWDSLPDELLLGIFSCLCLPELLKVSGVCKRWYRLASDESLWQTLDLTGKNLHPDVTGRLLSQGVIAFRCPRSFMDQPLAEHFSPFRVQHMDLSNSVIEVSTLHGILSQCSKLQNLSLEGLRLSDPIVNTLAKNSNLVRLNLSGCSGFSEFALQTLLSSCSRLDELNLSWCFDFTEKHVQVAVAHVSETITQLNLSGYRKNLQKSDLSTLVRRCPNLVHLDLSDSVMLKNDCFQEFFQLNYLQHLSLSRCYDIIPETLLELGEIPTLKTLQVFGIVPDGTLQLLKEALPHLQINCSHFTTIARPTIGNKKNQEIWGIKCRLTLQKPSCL
Sequence of S-phase kinase-associated protein 2/Cyclin-dependent kinases regulatory subunit 1/S-phase kinase-associated protein 1 (P63208 whole entry, further chain): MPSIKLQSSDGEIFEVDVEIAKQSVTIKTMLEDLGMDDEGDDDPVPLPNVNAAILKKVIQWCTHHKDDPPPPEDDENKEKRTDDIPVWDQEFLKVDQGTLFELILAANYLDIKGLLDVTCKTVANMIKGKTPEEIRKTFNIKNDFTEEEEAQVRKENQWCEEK

Row | IC50 [1] | Structure (SMILES) | other results
1 | 3.3 µM | O=C(NCC1CCN(c2cnc(-c3ccccc3)c(-c3ccccc3)n2)CC1)C1CC1 | 
2 | > 25 µM | CC(C)(C)C(=O)NCC1CCN(c2cnc(-c3cccc(CO)c3)c(-c3ccccc3)n2)CC1 | 
3 | 15.6 µM | O=C(NCC1CCN(c2cnc(-c3ccccc3)c(-c3ccccc3)n2)CC1)C(F)(F)F | 
4 | 12.4 µM | CC(=O)NCC1CCN(c2cnc(-c3ccccc3)c(-c3ccccc3)n2)CC1 | 
5 | > 25 µM | CC(C)(C)C(=O)NCC1CCN(c2cnc(-c3ccccc3CO)c(-c3ccccc3)n2)CC1 | 
6 | > 25 µM | O=C(CCl)NCC1CCN(c2cnc(-c3ccccc3)c(-c3ccccc3)n2)CC1 | 
7 | > 25 µM | CC(C)(C)C(=O)NCC1CCN(c2cnc(-c3cncnc3)c(-c3ccccc3)n2)CC1 | 
8 | > 25 µM | C=CC(=O)NCC1CCN(c2cnc(-c3ccccc3)c(-c3ccccc3)n2)CC1 | 
9 | > 25 µM | CC(C)(C)C(=O)NCC1CCN(c2cnc(-c3ccncc3)c(-c3ccccc3)n2)CC1 | 
10 | 5.2 µM | CN(C)c1ccc(-c2ncc(N3CCC(CNC(=O)C(C)(C)C)CC3)nc2-c2ccccc2)cc1 | 
11 | 2.3 µM | CC(C)(C)OC(=O)NCC1CCN(c2cnc(-c3ccccc3)c(-c3ccccc3)n2)CC1 | solubility [2]: 0.51 µg/mL (≈ 1.15 µM); IC50 (MGC-803): 23.6 µM; IC50 (PC-3): 11.7 µM; IC50 [3]: 45.6 µM; IC50 (NCI-H1299): 41.6 µM; IC50 (MCF7): 18 µM
12 | > 25 µM | CC(C)(C)C(=O)NCC1CCN(c2cnc(C3CCCCC3)c(-c3ccccc3)n2)CC1 | 
13 | 8.12 µM | CC(C)(C)C(=O)NCC1CCN(c2cnc(-c3ccco3)c(-c3ccccc3)n2)CC1 | 
14 | 10.9 µM | CC(C)(C)C(=O)NCC1CCN(c2cnc(-c3ccc(C(F)(F)F)cc3)c(-c3ccccc3)n2)CC1 | 
15 | > 25 µM | CC(C)(C)C(=O)NCC1CCN(c2cnc(-c3ccc(N)cc3)c(-c3ccccc3)n2)CC1 | 
16 | > 25 µM | O=C(CBr)NCC1CCN(c2cnc(-c3ccccc3)c(-c3ccccc3)n2)CC1 | 
17 | > 25 µM | C=Cc1ncc(N2CCC(CNC(=O)C(C)(C)C)CC2)nc1-c1ccccc1 | 
18 | 2.8 µM | CCC(=O)NCC1CCN(c2cnc(-c3ccccc3)c(-c3ccccc3)n2)CC1 | solubility [2]: 0.57 µg/mL (≈ 1.42 µM); IC50 (MGC-803): 43.9 µM; IC50 (PC-3): 22.1 µM; IC50 [3]: 52.6 µM; IC50 (NCI-H1299): 68.3 µM; IC50 (MCF7): 58.1 µM
19 | 2.7 µM | CC(C)(C)C(=O)NCC1CCN(c2cnc(-c3ccc(S(C)(=O)=O)cc3)c(-c3ccccc3)n2)CC1 | solubility [2]: 0.19 µg/mL (≈ 0.375 µM); IC50 (MGC-803): 87.2 µM; IC50 (PC-3): 63.7 µM; IC50 [3]: 88.2 µM; IC50 (NCI-H1299): 50.8 µM; IC50 (MCF7): 65.6 µM
20 | 10.2 µM | CC(C)(C)C(=O)NC1CCN(c2cnc(-c3ccccc3)c(-c3ccccc3)n2)CC1 | 
21 | 13.1 µM | O=C(CCCl)NCC1CCN(c2cnc(-c3ccccc3)c(-c3ccccc3)n2)CC1 | 
22 | > 25 µM | CC(C)(C)C(=O)NCC1CCN(c2cnc(-c3cn[nH]c3)c(-c3ccccc3)n2)CC1 | 
23 | > 25 µM | CC(C)c1ncc(N2CCC(CNC(=O)C(C)(C)C)CC2)nc1-c1ccccc1 | 
24 | > 25 µM | CC(C)(C)C(=O)NCC1CCN(c2cnc(Br)c(-c3ccccc3)n2)CC1 | 

Further lines, the compound ahead of its results:

Row | Structure (SMILES) | IC50 [1] | other results
25 | Cc1ccc(S(=O)(=O)NC(=O)COCCCCN(c2cnc(-c3ccccc3)c(-c3ccccc3)n2)C(C)C)cc1 | > 50 µM | 
26 | CC(C)(C)OC(=O)NC1CCCN(c2cnc(-c3ccccc3)c(-c3ccccc3)n2)C1 (configuration not stated) | > 25 µM | 
27 | O=C(NC1CCN(c2cnc(-c3ccccc3)c(-c3ccccc3)n2)CC1)c1ccccc1 |  | solubility [2]: 0.1 µg/mL (≈ 0.23 µM); IC50 (MGC-803): 41.3 µM; IC50 (PC-3): > 100 µM; IC50 [3]: > 100 µM; IC50 (NCI-H1299): > 100 µM; IC50 (MCF7): 25.1 µM
28 | CC(C)N(CCCCOCC(=O)Nc1nccs1)c1cnc(-c2ccccc2)c(-c2ccccc2)n1 | > 50 µM | 
29 | c1ccc(-c2ncc(NCCN3CCOCC3)nc2-c2ccccc2)cc1 | > 50 µM | 
30 | CS(=O)(=O)NC(=O)COCCCCNc1cnc(-c2ccccc2)c(-c2ccccc2)n1 | > 50 µM | 
31 | c1ccc(-c2ncc(NC3CCCCC3)nc2-c2ccccc2)cc1 | > 50 µM | 
32 | CN(CCNC(=O)OC(C)(C)C)c1cnc(-c2ccccc2)c(-c2ccccc2)n1 | 20.2 µM | 
33 | CC(C)(C)OC(=O)NC1CCN(c2cnc(-c3ccccc3)c(-c3ccccc3)n2)C1 (configuration not stated) | > 25 µM | 
34 | O=C(NC1CCN(c2cnc(-c3ccccc3)c(-c3ccccc3)n2)CC1)Oc1ccccc1 | 13.5 µM | 
35 | c1ccc(-c2ncc(N3CCOCC3)nc2-c2ccccc2)cc1 | > 50 µM | 
36 | O=C(NCC1CCN(c2cnc(-c3ccccc3)c(-c3ccccc3)n2)CC1)N1CCOCC1 |  | solubility [2]: 0.55 µg/mL (≈ 1.2 µM); IC50 (MGC-803): 59.3 µM; IC50 (PC-3): 28.6 µM; IC50 [3]: 51.8 µM; IC50 (NCI-H1299): 30.4 µM; IC50 (MCF7): 47.1 µM
37 | CC(C)N(CCCCOCC(=O)N1CCOCC1)c1cnc(-c2ccccc2)c(-c2ccccc2)n1 | 52.6 µM | 
38 | O=C(N1CCOCC1)N1CCN(c2cnc(-c3ccccc3)c(-c3ccccc3)n2)CC1 | > 25 µM | 
39 | CCC(=O)N1CCN(c2cnc(-c3ccccc3)c(-c3ccccc3)n2)CC1 | 10 µM | 
40 | CN1CCN(c2cnc(-c3ccccc3)c(-c3ccccc3)n2)CC1 | > 50 µM | 
41 | CC(C)(C)C(=O)NCC1CCN(c2cnc(-c3ccccc3)c(-c3ccccc3)n2)CC1 |  | solubility [2]: 0.1 µg/mL (≈ 0.233 µM); IC50 (MGC-803): > 100 µM; IC50 (PC-3): 68 µM; IC50 [3]: 75.6 µM; IC50 (NCI-H1299): 59 µM; IC50 (MCF7): 51.8 µM
42 | CC1CN(c2cnc(-c3ccccc3)c(-c3ccccc3)n2)CCN1C(=O)OC(C)(C)C (configuration not stated) | > 25 µM | 
43 | c1ccc(-c2ncc(N3CCSCC3)nc2-c2ccccc2)cc1 | > 50 µM | 
44 | NC1CCN(c2cnc(-c3ccccc3)c(-c3ccccc3)n2)CC1 | 25.2 µM | 

Row | Structure (SMILES) | IC50 [1] | other results
45 | CC(C)N(C)c1cnc(-c2ccccc2)c(-c2ccccc2)n1 | > 50 µM | 
46 | Clc1cnc(-c2ccccc2)c(-c2ccccc2)n1 | > 50 µM | 
47 | CS(=O)(=O)NC(=O)COCCNc1cnc(-c2ccccc2)c(-c2ccccc2)n1 | > 50 µM | 
48 | CN(C)CCN(C)c1cnc(-c2ccccc2)c(-c2ccccc2)n1 | > 50 µM | 
49 | CC(C)(C)OC(=O)NC1CCN(c2cnc(-c3ccccc3)c(-c3ccccc3)n2)CC1 | 13.7 µM | 
50 | CN(C)CCNc1cnc(-c2ccccc2)c(-c2ccccc2)n1 | > 50 µM | 
51 | CC(C)(C)OC(=O)NCCCNc1cnc(-c2ccccc2)c(-c2ccccc2)n1 | > 25 µM | 
52 | O=C(NC1CCN(c2cnc(-c3ccccc3)c(-c3ccccc3)n2)CC1)OCc1ccccc1 | > 25 µM | 
53 | CN(C(=O)OC(C)(C)C)C1CCN(c2cnc(-c3ccccc3)c(-c3ccccc3)n2)CC1 | > 25 µM | 
54 | O=C(CCCl)N1CCN(c2cnc(-c3ccccc3)c(-c3ccccc3)n2)CC1 | > 25 µM | 
55 | O=C(c1cccs1)N1CCN(c2cnc(-c3ccccc3)c(-c3ccccc3)n2)CC1 | > 25 µM | 
56 | CC(C)(C)OC(=O)N1CCCN(c2cnc(-c3ccccc3)c(-c3ccccc3)n2)CC1 | 24.5 µM | 
57 | CC(C)(C)OC(=O)N1CCN(c2cnc(-c3ccccc3)c(-c3ccccc3)n2)CC1 | 1.7 µM | solubility [2]: 0.13 µg/mL (≈ 0.312 µM); IC50 (MGC-803): 46.9 µM; IC50 (PC-3): 96.5 µM; IC50 [3]: 52.3 µM; IC50 (NCI-H1299): > 100 µM; IC50 (MCF7): 42.1 µM
58 | CC(C)N(CCCCOCC(=O)O)c1cnc(-c2ccccc2)c(-c2ccccc2)n1 [LASELIPAG] | > 50 µM | 
59 | CC(C)N(CCCCOCC(=O)Nc1ccccc1)c1cnc(-c2ccccc2)c(-c2ccccc2)n1 | > 50 µM | 
60 | O=C(C1CC1)N1CCN(c2cnc(-c3ccccc3)c(-c3ccccc3)n2)CC1 | 5.8 µM | 
61 | CS(=O)(=O)NC(=O)COCCCCN(Cc1ccccc1)c1cnc(-c2ccccc2)c(-c2ccccc2)n1 | > 50 µM | 
62 | O=C(CBr)N1CCN(c2cnc(-c3ccccc3)c(-c3ccccc3)n2)CC1 | > 25 µM | 
63 | CN(C)c1cnc(-c2ccccc2)c(-c2ccccc2)n1 | 45.4 µM | 
64 | CN(c1cnc(-c2ccccc2)c(-c2ccccc2)n1)C1CCCCC1 | > 50 µM | 

Row | Structure (SMILES) | IC50 [1] | other results
65 | CC(C)(C)C(=O)NCC1CCN(c2cnc(-c3ccc(CO)cc3)c(-c3ccccc3)n2)CC1 |  | solubility [2]: 0.06 µg/mL (≈ 0.131 µM); IC50 (MGC-803): > 100 µM; IC50 (PC-3): > 100 µM; IC50 [3]: > 100 µM; IC50 (NCI-H1299): 100 µM; IC50 (MCF7): > 100 µM
66 | OCC1CCN(c2cnc(-c3ccccc3)c(-c3ccccc3)n2)CC1 | > 50 µM | 
67 | O=C(c1ccccc1)N1CCN(c2cnc(-c3ccccc3)c(-c3ccccc3)n2)CC1 | 17.7 µM | 
68 | CC(C)Nc1cnc(-c2ccccc2)c(-c2ccccc2)n1 | > 50 µM | 
69 | O=C(NCC1CCN(c2cnc(-c3ccccc3)c(-c3ccccc3)n2)CC1)c1cccs1 | 8.5 µM | 
70 | CC(C)(C)C(=O)N1CCN(c2cnc(-c3ccccc3)c(-c3ccccc3)n2)CC1 | 13.2 µM | 
71 | O=C(NCC1CCN(c2cnc(-c3ccccc3)c(-c3ccccc3)n2)CC1)C1CCCCC1 | 8.5 µM | 
72 | Oc1cnc(-c2ccccc2)c(-c2ccccc2)n1 | > 50 µM | 
73 | O=C(C1CCCCC1)N1CCN(c2cnc(-c3ccccc3)c(-c3ccccc3)n2)CC1 | > 25 µM | 
74 | O=C(CCl)N1CCN(c2cnc(-c3ccccc3)c(-c3ccccc3)n2)CC1 | 9.9 µM | 
75 | C=CC(=O)N1CCN(c2cnc(-c3ccccc3)c(-c3ccccc3)n2)CC1 | > 25 µM | 
76 | CC(C)COC(=O)NC1CCN(c2cnc(-c3ccccc3)c(-c3ccccc3)n2)CC1 | > 25 µM | 
77 | COc1cnc(-c2ccccc2)c(-c2ccccc2)n1 | > 50 µM | 
78 | Cc1ccc(S(=O)(=O)NC2CCN(c3cnc(-c4ccccc4)c(-c4ccccc4)n3)CC2)cc1 | > 25 µM | 
79 | CCS(=O)(=O)NC1CCN(c2cnc(-c3ccccc3)c(-c3ccccc3)n2)CC1 | > 25 µM | 
80 | CN(C)C1CCN(c2cnc(-c3ccccc3)c(-c3ccccc3)n2)CC1 | > 50 µM | 
81 | CNc1cnc(-c2ccccc2)c(-c2ccccc2)n1 | > 50 µM | 
82 | CC1CCN(c2cnc(-c3ccccc3)c(-c3ccccc3)n2)CC1 | > 50 µM | 
83 | CC(=O)N1CCN(c2cnc(-c3ccccc3)c(-c3ccccc3)n2)CC1 | 17.9 µM | 
